From PubChem BioAssay (NCI)
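Growth conditions: 96-well plates. Treatment: test compound, 48 hours, 5 concentrations. Analysis: linear interpolation between bracketing concentrations; unreached endpoints set to highest concentration. GI50 = concentration required for 50% inhibition of growth. TGI denotes the concentration required for complete inhibition of growth.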

Legend:
Assay in all cases: NCI tumour cell line growth inhibition, 48 h
[1] = system: 786-0 renal
[2] = system: A498 renal
[3] = system: A549 NSCLC
[4] = system: ACHN renal
[5] = system: BT-549 breast
[6] = system: CAKI-1 renal
[7] = system: CCRF-CEM leukemia
[8] = system: COLO 205 colon
[9] = system: DU-145 prostate
[10] = system: EKVX NSCLC
[11] = system: HCC-2998 colon
[12] = system: HCT-116 colon
[13] = system: HCT-15 colon
[14] = system: HL-60(TB) leukemia
[15] = system: HOP-62 NSCLC
[16] = system: HOP-92 NSCLC
[17] = system: HS 578T breast
[18] = system: HT29 colon
[19] = system: IGROV1 ovarian
[20] = system: K-562 leukemia
[21] = system: KM12 colon
[22] = system: LOX IMVI melanoma
[23] = system: M14 melanoma
[24] = system: MALME-3M melanoma
[25] = system: MCF7 breast
[26] = system: MDA-MB-231 breast
[27] = system: MDA-MB-435
[28] = system: MOLT-4 leukemia
[29] = system: NCI-H226 lung
[30] = system: NCI-H23 lung
[31] = system: NCI-H460 lung
[32] = system: NCI-H522 lung
[33] = system: NCI/ADR-RES ovarian
[34] = system: OVCAR-3 ovarian
[35] = system: OVCAR-4 ovarian
[36] = system: OVCAR-5 ovarian
[37] = system: OVCAR-8 ovarian
[38] = system: PC-3 prostate
[39] = system: RPMI-8226 leukemia
[40] = system: RXF 393 renal
[41] = system: SF-268 CNS
[42] = system: SF-295 CNS
[43] = system: SF-539 CNS
[44] = system: SK-MEL-2 melanoma
[45] = system: SK-MEL-28 melanoma
[46] = system: SK-MEL-5 melanoma
[47] = system: SK-OV-3 ovarian
[48] = system: SN12C renal
[49] = system: SNB-19 CNS
[50] = system: SNB-75 CNS
[51] = system: SR leukemia
[52] = system: SW-620 colon
[53] = system: T-47D breast
[54] = system: TK-10 renal
[55] = system: U251 CNS
[56] = system: UACC-257 melanoma
[57] = system: UACC-62 melanoma
[58] = system: UO-31 renal

CCOC(=O)c1cn2ncnc(Oc3ccc(NC(=O)NCCN(CC)CC)c(Cl)c3)c2c1C
GI50 [1]: 1.89 µM
TGI [1]: 3.75 µM
GI50 [2]: 2.15 µM
TGI [2]: 8.08 µM
GI50 [3]: 15.8 µM
TGI [3]: 40.2 µM
GI50 [4]: 2.31 µM
TGI [4]: 5.54 µM
GI50 [5]: 4.96 µM
TGI [5]: 19.5 µM
GI50 [6]: 1.9 µM
TGI [6]: 3.82 µM
GI50 [7]: 2.33 µM
TGI [7]: 6.73 µM
GI50 [8]: 2.01 µM
TGI [8]: 3.78 µM
GI50 [9]: 7.1 µM
TGI [9]: 55.1 µM
GI50 [10]: 3.79 µM
TGI [10]: 21.5 µM
GI50 [11]: 2.01 µM
TGI [11]: 4.68 µM
GI50 [12]: 2 µM
TGI [12]: 4.75 µM
GI50 [13]: 1.84 µM
TGI [13]: 4.07 µM
GI50 [14]: 1.81 µM
TGI [14]: 4.07 µM
GI50 [15]: 12 µM
TGI [15]: 29.5 µM
GI50 [16]: 1.76 µM
TGI [16]: 6.19 µM
GI50 [17]: 3.88 µM
TGI [17]: 21.7 µM
GI50 [18]: 2.26 µM
TGI [18]: 5.45 µM
GI50 [19]: 6.71 µM
TGI [19]: 26.2 µM
GI50 [20]: 2.01 µM
TGI [20]: 4.48 µM
GI50 [21]: 10.8 µM
TGI [21]: 49.5 µM
GI50 [22]: 1.85 µM
TGI [22]: 3.55 µM
GI50 [23]: 1.89 µM
TGI [23]: 3.75 µM
GI50 [24]: 1.7 µM
TGI [24]: 3.3 µM
GI50 [25]: 2.14 µM
TGI [25]: 5.21 µM
GI50 [26]: 2.1 µM
TGI [26]: 4.37 µM
GI50 [27]: 1.87 µM
TGI [27]: 3.51 µM
GI50 [28]: 2.36 µM
TGI [28]: 5.67 µM
GI50 [29]: 17.9 µM
TGI [29]: > 100 µM
GI50 [30]: 10.4 µM
TGI [30]: 26 µM
GI50 [31]: 9.1 µM
TGI [31]: 24.4 µM
GI50 [32]: 2.3 µM
TGI [32]: 5.92 µM
GI50 [33]: 4.26 µM
TGI [33]: 64.5 µM
GI50 [34]: 8.12 µM
TGI [34]: 35.8 µM
GI50 [35]: 12.2 µM
TGI [35]: 45.5 µM
GI50 [36]: 3.97 µM
TGI [36]: 16.1 µM
GI50 [37]: 5.66 µM
TGI [37]: > 100 µM
GI50 [38]: 3.22 µM
TGI [38]: 15 µM
GI50 [39]: 1.73 µM
TGI [39]: 3.92 µM
GI50 [40]: 1.63 µM
TGI [40]: 3.37 µM
GI50 [41]: 2.28 µM
TGI [41]: 6.58 µM
GI50 [42]: 2.14 µM
TGI [42]: 4.71 µM
GI50 [43]: 1.76 µM
TGI [43]: 3.45 µM
GI50 [44]: 2.36 µM
TGI [44]: 5.38 µM
GI50 [45]: 1.69 µM
TGI [45]: 3.15 µM
GI50 [46]: 1.81 µM
TGI [46]: 3.3 µM
GI50 [47]: 20.7 µM
TGI [47]: 50.2 µM
GI50 [48]: 3.34 µM
TGI [48]: 13.3 µM
GI50 [49]: 10.5 µM
TGI [49]: 28.1 µM
GI50 [50]: 3.14 µM
TGI [50]: 31.5 µM
GI50 [51]: 1.96 µM
TGI [51]: 5.15 µM
GI50 [52]: 2.1 µM
TGI [52]: 4.6 µM
GI50 [53]: 2.77 µM
TGI [53]: 8.72 µM
GI50 [54]: 2.91 µM
TGI [54]: 11.1 µM
GI50 [55]: 2.38 µM
TGI [55]: 6.24 µM
GI50 [56]: 1.89 µM
TGI [56]: 4.05 µM
GI50 [57]: 1.95 µM
TGI [57]: 3.72 µM
GI50 [58]: 1.55 µM
TGI [58]: 3.19 µM

C=C1C(=O)O[C@H]2[C@H]1CC/C(COC(=O)NCc1cccc(OC)c1)=C\CC[C@@]1(C)O[C@@H]21
GI50 [1]: 1.84 µM
TGI [1]: 3.61 µM
GI50 [2]: 10.5 µM
TGI [2]: 22.4 µM
GI50 [3]: 3.1 µM
TGI [3]: 12.8 µM
GI50 [4]: 1.17 µM
TGI [4]: 2.41 µM
GI50 [5]: 1.51 µM
TGI [5]: 3.21 µM
GI50 [6]: 1.62 µM
TGI [6]: 3.62 µM
GI50 [7]: 1.14 µM
TGI [7]: 4.76 µM
GI50 [8]: 1.68 µM
TGI [8]: 3.41 µM
GI50 [9]: 1.58 µM
TGI [9]: 3.04 µM
GI50 [10]: 2 µM
TGI [10]: 5.81 µM
GI50 [11]: 15.3 µM
TGI [11]: 31.1 µM
GI50 [12]: 1.27 µM
TGI [12]: 2.76 µM
GI50 [13]: 1.38 µM
TGI [13]: 2.82 µM
GI50 [14]: 1.21 µM
TGI [14]: 4.51 µM
GI50 [15]: 13.2 µM
TGI [15]: 28.3 µM
GI50 [16]: 1.32 µM
TGI [16]: 2.96 µM
GI50 [17]: 13 µM
TGI [17]: 37.8 µM
GI50 [18]: 1.79 µM
TGI [18]: 3.87 µM
GI50 [19]: 2.76 µM
TGI [19]: 8.4 µM
GI50 [20]: 1.93 µM
TGI [20]: 6.79 µM
GI50 [21]: 9.98 µM
TGI [21]: 25.3 µM
GI50 [22]: 1.51 µM
TGI [22]: 3.01 µM
GI50 [23]: 2.08 µM
TGI [23]: 5.16 µM
GI50 [24]: 1.74 µM
TGI [24]: 3.53 µM
GI50 [25]: 2.36 µM
TGI [25]: 8.97 µM
GI50 [26]: 1.95 µM
TGI [26]: 4.22 µM
GI50 [27]: 1.5 µM
TGI [27]: 3.22 µM
GI50 [28]: 2.38 µM
TGI [28]: 7.19 µM
GI50 [29]: 12.1 µM
TGI [29]: 27.8 µM
GI50 [30]: 3.07 µM
TGI [30]: 10.3 µM
GI50 [31]: 3.3 µM
TGI [31]: 13.4 µM
GI50 [32]: 1.22 µM
TGI [32]: 2.8 µM
GI50 [33]: 3.07 µM
TGI [33]: 12.3 µM
GI50 [34]: 1.6 µM
TGI [34]: 3.29 µM
GI50 [35]: 2.61 µM
TGI [35]: 11.1 µM
GI50 [36]: 2.17 µM
TGI [36]: 5.04 µM
GI50 [37]: 2.03 µM
TGI [37]: 5.63 µM
GI50 [38]: 2.26 µM
TGI [38]: 6.07 µM
GI50 [39]: 1.98 µM
TGI [39]: 6.4 µM
GI50 [40]: 1.38 µM
TGI [40]: 2.84 µM
GI50 [41]: 3.21 µM
TGI [41]: 12.1 µM
GI50 [42]: 9.76 µM
TGI [42]: 21.7 µM
GI50 [43]: 1.55 µM
TGI [43]: 2.98 µM
GI50 [44]: 11.4 µM
TGI [44]: 25 µM
GI50 [45]: 1.84 µM
TGI [45]: 3.82 µM
GI50 [46]: 1.64 µM
TGI [46]: 3.2 µM
GI50 [47]: 14.9 µM
TGI [47]: 28.2 µM
GI50 [48]: 1.77 µM
TGI [48]: 4.4 µM
GI50 [49]: 6.42 µM
TGI [49]: 20 µM
GI50 [50]: 12.2 µM
TGI [50]: 24.7 µM
GI50 [51]: 1.3 µM
TGI [51]: 12 µM
GI50 [52]: 1.52 µM
TGI [52]: 3.28 µM
GI50 [53]: 2.31 µM
TGI [53]: 6.38 µM
GI50 [54]: 1.85 µM
TGI [54]: 3.87 µM
GI50 [55]: 3.65 µM
TGI [55]: 14.9 µM
GI50 [56]: 1.96 µM
TGI [56]: 5.79 µM
GI50 [57]: 1.91 µM
TGI [57]: 4.24 µM
GI50 [58]: 1.58 µM
TGI [58]: 2.94 µM
